In PubChem BioAssay AID1963970 (Molecular Pharmacology Branch, DTP, NCI, 2024):

Tested on: 931267-113-T-J1-PDC multicell spheroid viability
Test: Anticancer human tumor 931267-113-T-J1-PDC patient-derived colon adenocarcinoma cell line growth inhibition [PI3K]
Settings: for IC50: curve of first compound; for viability, T/C: stronger effect = lower value
How it was run: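 Tumor cells were combined with HUVEC and MSCs into spheroids, then dosed with PI3K-inhibitor combinations over half-log ranges capped near clinical Cmax or 10 microM.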

[1] = second compound 0.00316 µM, first compound 0.0316 µM
[2] = second compound 0.00316 µM, first compound 0.1 µM
[3] = second compound 0.00316 µM, first compound 0.316 µM
[4] = second compound 0.00316 µM, first compound 1 µM
[5] = second compound 0.00316 µM, first compound 3.16 µM
[6] = second compound 0.00316 µM, first compound 10 µM
[7] = second compound 0.01 µM, first compound 0.0316 µM
[8] = second compound 0.01 µM, first compound 0.1 µM
[9] = second compound 0.01 µM, first compound 0.316 µM
[10] = second compound 0.01 µM, first compound 1 µM
[11] = second compound 0.01 µM, first compound 3.16 µM
[12] = second compound 0.01 µM, first compound 10 µM
[13] = second compound 0.0316 µM, first compound 0.0316 µM
[14] = second compound 0.0316 µM, first compound 0.1 µM
[15] = second compound 0.0316 µM, first compound 0.316 µM
[16] = second compound 0.0316 µM, first compound 1 µM
[17] = second compound 0.0316 µM, first compound 3.16 µM
[18] = second compound 0.0316 µM, first compound 10 µM
[19] = second compound 0.1 µM, first compound 0.0316 µM
[20] = second compound 0.1 µM, first compound 0.1 µM
[21] = second compound 0.1 µM, first compound 0.316 µM
[22] = second compound 0.1 µM, first compound 1 µM
[23] = second compound 0.1 µM, first compound 3.16 µM
[24] = second compound 0.1 µM, first compound 10 µM
[25] = second compound 0.316 µM, first compound 0.0316 µM
[26] = second compound 0.316 µM, first compound 0.1 µM
[27] = second compound 0.316 µM, first compound 0.316 µM
[28] = second compound 0.316 µM, first compound 1 µM
[29] = second compound 0.316 µM, first compound 3.16 µM
[30] = second compound 0.316 µM, first compound 10 µM
[31] = second compound 1 µM, first compound 0.0316 µM
[32] = second compound 1 µM, first compound 0.1 µM
[33] = second compound 1 µM, first compound 0.316 µM
[34] = second compound 1 µM, first compound 1 µM
[35] = second compound 1 µM, first compound 3.16 µM
[36] = second compound 1 µM, first compound 10 µM
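Also: viability read 7 days after compound addition.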

Structure (SMILES): Cn1ncc(Cl)c1-c1cc(C(=O)NC(CN)Cc2cccc(F)c2)sc1Cl (centres undefined) + CC(Nc1ccc2c(c1)OCCn1cc(N3C(=O)OCC3C(F)F)nc1-2)C(N)=O
- IC50 (second compound 0.00316 µM): 5.16 µM
- IC50 (second compound 0.01 µM): 5.26 µM
- IC50 (second compound 0.0316 µM): 5.05 µM
- IC50 (second compound 0.1 µM): 3.9 µM
- IC50 (second compound 0.316 µM): 4.09 µM
- IC50 (second compound 1 µM): 3.51 µM
- viability, T/C [1]: 94.7%
- viability, T/C [2]: 102%
- viability, T/C [3]: 85.5%
- viability, T/C [4]: 88.3%
- viability, T/C [5]: 71.1%
- viability, T/C [6]: 22.8%
- viability, T/C [7]: 98.3%
- viability, T/C [8]: 90.7%
- viability, T/C [9]: 91%
- viability, T/C [10]: 79.2%
- viability, T/C [11]: 70.9%
- viability, T/C [12]: 27.6%
- viability, T/C [13]: 103%
- viability, T/C [14]: 89.2%
- viability, T/C [15]: 94.8%
- viability, T/C [16]: 86.3%
- viability, T/C [17]: 66.1%
- viability, T/C [18]: 25.9%
- viability, T/C [19]: 110%
- viability, T/C [20]: 92.6%
- viability, T/C [21]: 92.5%
- viability, T/C [22]: 75.1%
- viability, T/C [23]: 61.1%
- viability, T/C [24]: 20.3%
- viability, T/C [25]: 80.8%
- viability, T/C [26]: 94.4%
- viability, T/C [27]: 76.4%
- viability, T/C [28]: 73.2%
- viability, T/C [29]: 60.1%
- viability, T/C [30]: 20.9%
- viability, T/C [31]: 82%
- viability, T/C [32]: 70.7%
- viability, T/C [33]: 80.7%
- viability, T/C [34]: 63.8%
- viability, T/C [35]: 54.7%
- viability, T/C [36]: 21.4%

Structure (SMILES): Cn1nccc1Nc1nccc(-c2ccn(C(CO)c3ccc(Cl)c(F)c3)c(=O)c2)n1 (centres undefined) + CC(Nc1ccc2c(c1)OCCn1cc(N3C(=O)OCC3C(F)F)nc1-2)C(N)=O
- IC50 (second compound 0.00316 µM): 8.42 µM
- IC50 (second compound 0.01 µM): 3.65 µM
- IC50 (second compound 0.0316 µM): 4.15 µM
- IC50 (second compound 0.1 µM): 2.89 µM
- IC50 (second compound 0.316 µM): 1.74 µM
- IC50 (second compound 1 µM): 1.09 µM
- viability, T/C [1]: 96.7%
- viability, T/C [2]: 98.6%
- viability, T/C [3]: 88.6%
- viability, T/C [4]: 81.2%
- viability, T/C [5]: 64.5%
- viability, T/C [6]: 47.4%
- viability, T/C [7]: 99%
- viability, T/C [8]: 92.4%
- viability, T/C [9]: 97.2%
- viability, T/C [10]: 79.9%
- viability, T/C [11]: 52.3%
- viability, T/C [12]: 37.2%
- viability, T/C [13]: 99.5%
- viability, T/C [14]: 91.5%
- viability, T/C [15]: 82.6%
- viability, T/C [16]: 74.3%
- viability, T/C [17]: 54.4%
- viability, T/C [18]: 33.1%
- viability, T/C [19]: 102%
- viability, T/C [20]: 86.1%
- viability, T/C [21]: 86.1%
- viability, T/C [22]: 69.8%
- viability, T/C [23]: 46.5%
- viability, T/C [24]: 25.9%
- viability, T/C [25]: 91.7%
- viability, T/C [26]: 76.2%
- viability, T/C [27]: 73%
- viability, T/C [28]: 61.8%
- viability, T/C [29]: 38.6%
- viability, T/C [30]: 18%
- viability, T/C [31]: 72.8%
- viability, T/C [32]: 76.5%
- viability, T/C [33]: 68.8%
- viability, T/C [34]: 51%
- viability, T/C [35]: 29.2%
- viability, T/C [36]: 17.7%
